Here are results for one molecule from PMC8243516, “Inhibition of lysosomal phospholipase A2 predicts drug-induced phospholipidosis” (Journal of Lipid Research, 2021).

“Also recorded” adds a separate entry of the source. Like-named read-outs stand apart in the source and are kept apart here.

The target in data set [1] is T1, recombinant mouse LPLA2 (PLA2G15) (Mus musculus, UniProt Q8VEB4).
T1 construct: purchased Proteos Inc. (Kalamazoo, MI)
T1 sequence (Q8VEB4 34-412): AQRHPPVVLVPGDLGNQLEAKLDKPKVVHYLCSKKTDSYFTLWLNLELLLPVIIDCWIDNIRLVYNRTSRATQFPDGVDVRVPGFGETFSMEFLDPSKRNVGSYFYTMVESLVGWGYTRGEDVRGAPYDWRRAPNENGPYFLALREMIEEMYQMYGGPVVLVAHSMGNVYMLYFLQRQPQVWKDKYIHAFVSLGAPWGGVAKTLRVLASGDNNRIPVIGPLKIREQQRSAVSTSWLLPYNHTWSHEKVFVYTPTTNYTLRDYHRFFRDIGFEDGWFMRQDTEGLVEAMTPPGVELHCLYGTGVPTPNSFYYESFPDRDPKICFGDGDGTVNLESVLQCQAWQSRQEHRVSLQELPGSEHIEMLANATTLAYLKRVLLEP
The data set can be described thus: Transacylase activity of LPLA2 (1-O-acyl-N-acetylsphingosine synthase, cell-free liposome assay). It counts as biochemical. Particulars: read-out: LPLA2 IC50.

The target in data set [2] is T2, LPLA2 (Mus musculus, UniProt Q8VEB4).
T2 construct: purchased Proteos Inc. (Kalamazoo, MI)
T2 sequence (Q8VEB4 34-412): T1 sequence (Q8VEB4 34-412)
The data set can be described thus: LPLA2 esterase assay with pNPB. The data set is classed as biochemical. Particulars: pNPB substrate, no liposomes. How it is done:
pNPB was used to directly measure the activity of LPLA2. pNPB is a water-soluble substrate that can directly access the catalytic site in the absence of liposomes ([25]). A reaction mixture of pNPB (0.2 mM) and cationic amphiphilic compounds at varying concentrations in sodium citrate buffer (pH 4.5) was prepared and prewarmed to 37°C for 5 min in a total volume of 500 μl. The reaction was initiated by the addition of recombinant LPLA2 (5 μg). At predetermined times, 120 μl of the reaction mixture was transferred to a tube containing 120 μl of 0.2 M NaHCO3 and kept on ice. The cold reaction product was subsequently warmed to 37°C, and the absorbance of the reaction product, p-nitrophenoxide, was measured at 400 nm with a Beckman Du-640 spectrophotometer.

Data set [3] deals with T3, LPLA2 binding to DOPC/sulfatide liposomes (Mus musculus, UniProt Q8VEB4).
T3 construct: purchased Proteos Inc. (Kalamazoo, MI)
T3 sequence (Q8VEB4 34-412): T1 sequence (Q8VEB4 34-412)
The data set can be described thus: Liposome LPLA2 cosedimentation assay. The settings on record: 150,000 g.

Data set [4] has as its target T2, LPLA2. The experiment in a line: LPLA2 thermal stability measurement (SYPRO Orange Tm). It counts as binding. The settings on record: N=3 ± SD.
Data set [5] deals with MDCK cells. The data set can be described thus: LipidTOX red particle quantification by fluorescence microscopy. The data set is classed as cell-based.
The target in data set [6] is T2, LPLA2. The data set can be described thus: LPLA2 transacylation activity toward p-NPB (1-O-butanoyl-N-acetylsphingosine formation). It counts as biochemical. Particulars: 250 nM fosinopril; LPLA2, N-acetylsphingosine and p-NPB as monodispersion.
The conditions of data set [7]: ref Pubchem and chEMBL database; cited from earlier work.
In data set [8] the test system is MDCK cells. The experiment in a line: Screening phospholipidosis assay (LipidTOX Red / NucBlue Live fluorescence ratio). Particulars: LipidTOX Red to NucBlue Live fluorescence ratio, 24 h, 15 μM.

With `CCC(=O)O[C@@H](O[P@](=O)(CCCCc1ccccc1)CC(=O)N1C[C@H](C2CCCCC2)C[C@H]1C(=O)O)C(C)C` [Fosinopril], the concentration for half-maximal inhibition (IC50) (usually the concentration that gives 50% inhibition) in data set [1] (1-O-acyl N-acetylsphingosine synthase activity, pH 4.5, DOPC/sulfatide liposomes) is 180 nM. The IC50 in data set [1] (LPLA2 dependent 1-O-acyl N-acetylsphingosine synthase activity) came to 181 nM. Also, the concentration for half-maximal inhibition (IC50) in data set [1] was 180 nM. Further, the “Inhibition of soluble esterase activity of LPLA2” value at LPLA2 [2] is “no inhibition”. Besides, the “Cosedimentation of liposomes and recombinant LPLA2” value in data set [3] is recorded as “partially inhibited”. For the same molecule, the “(ΔTm)c-(ΔTm)d, difference in melting temperature of LPLA2 alone or in the presence of drug” value at LPLA2 [4] was -0.90 ± 0.1 °C. The Percent area entry in the data set on MDCK cells [5] (325 nM) is on record as “increases”. Besides, in the data set with MDCK cells [5] (325 nM, 24 h), the “Increase in LipidTOX Red particle number versus controls” value is listed as about 20 fold. In the data set on MDCK cells [5] (24 h, versus non-treated control), the “LipidTOX Red staining” value is “significant increase”. In the data set on MDCK cells [5] (versus non-treated control), the Cell number result is reported as “No change”, the “LipidTOX Red particle number (in words)” value is recorded as “significant increase; also recorded: significantly increased” and the “Mean fluorescence intensity (MFI)” value is “significant increase; also recorded: increases”. For the same molecule, the “Inhibition of 1-O-butanoyl-N-acetylsphingosine formation” value on LPLA2 [6] was “no inhibition”. In data set [7], the “pKa (basic)” value is recorded as -4.4. In addition, the “Ratio (15 μM)” value in the data set on MDCK cells [8] was 0.67.
